Test results reported in patent publication US20130236960A1, “VITRIFICATED STORAGE SOLUTION FOR CELLS” (priority 2010, published 2013).
“Also recorded” adds a separate entry of the source.

How the values were obtained:
[1] = Examination of ice crystal growth inhibitor: time for melting the vitrified storage solution; format: physicochemical; details: for time required for the once vitrificated storage solution to be melted completely: 40% EG storage solution with the additive
Protocol: Examination of the ice crystal growth inhibitor was conducted by comparing the times required for melting the crystallized vitrificated storage solutions. That is, when crystal lumps having the same volume are melted, a polycrystalline substance having a larger total surface area is melted more quickly. It is believed that when the growth of ice crystals is suppressed on the phase transition to crystalline state, the melting time is shortened probably due to the formation of many minute ice crystals.
Specifically, experiment was conducted according to the following procedure. • The test fluid prepared was dispensed in a portion of 200 μl into 1.5 ml microtubes. • Dewar vessel was charged with liquid nitrogen, and a timer was provided. • The microtube was picked up with tweezers and dipped into liquid nitrogen for 40 seconds for vitrification. • The microtube was pulled out from liquid nitrogen, and the time required for complete disappearance of ice within the tube was measured.

[2] = Examination of vitrification promoting substances in 30% DMSO/PBS; format: physicochemical; details: 0.3 M added to 30% DMSO solution
Protocol: Specifically, the experiment was conducted as follows: • As the vitrification promoting substance, the following saccharides were examined: glucose, sucrose, maltose, fructose, trehalose, raffinose, erythritol, xylitol, sorbitol and mannitol. • The vitrification promoting substance was dissolved in 30% DMSO/PBS to a concentration of 0.3 M and 0.6 M respectively. • The solution thus prepared was divided into 200 μl portions in cryo-tubes, which were dipped into liquid nitrogen for rapid cooling. The tubes were dipped into liquid nitrogen for 5 minutes or more to stabilize the temperature before observation of each tube.

[3] = Vitrification ability of cell membrane permeable substances by rapid cooling with liquid nitrogen; format: physicochemical; details: 30% solution in PBS
Protocol: The 10 to 50% solutions of 6 dials (EG, PG, BG, IPG, DPG and PEG) and of DMSO were prepared and confirmed to be vitrified by rapid cooling with liquid nitrogen. Specifically, respective cell membrane permeable substances are dissolved in PBS to concentrations of 10, 20, 30, 40 and 50%, and the solution was stained with a small amount of phenol red in order to readily judge the vitrification. The solution thus prepared was divided into 200 μl portions in cryo-tubes, which were dipped into liquid nitrogen for rapid cooling. The tubes were dipped into liquid nitrogen for 5 minutes or more to stabilize the temperature before observation of each tube.

[4] = system: Mouse ES cell line strain D3; assay: Vitrification preservation efficiency with mouse ES cells (trypan blue survival rate, colony observation); format: cell-based; details: for colonies after vitrification, melting and culture: cell membrane permeable substance used alone, 40%, 60 seconds, 3 days culture
Protocol: The mouse ES cells after vitrification and melting were seeded, and the state of the cells after culture was confirmed by microscopic observation.
(§1) Specifically, the experiment was conducted as follows: • Mouse ES cells were cultured according to the ordinary method. • The mouse ES cells recovered were counted, divided into 10^6 cell portions in 1.5 ml tubes, and centrifuged at 1500 rpm for 5 minutes. • The supernatant was removed, and the cells were suspended in 200 μl of the vitrification medium. • After suspension, DAP213 and the test fluid were dipped into liquid nitrogen after 15 seconds and 60 seconds, respectively, for vitrification. • The tubes were left standing for 5 minutes or more to stabilize the temperature. • The tubes were taken out liquid nitrogen, and the cells were diluted with 1800 μl of the culture medium preliminarily heated to 37° C. and rapidly suspended for melting. • A portion of the suspension was sampled for counting the cells. • On counting the cells, the life or death of cells was judged from the index of the selective excretive ability of the viable cells to trypan blue and the survival rate was calculated. • The remaining cells were seeded in a 24 well plate, and the state after 3 days was confirmed by microscopic observation.
The 40% solution of each cell membrane permeable substance in PBS was prepared, and the mouse ES cells was suspended in the solution, left standing for 60 seconds, and dipped into liquid nitrogen for vitrification.
as §1, with “Specifically,” for “Specifically, the”, “out from” for “out”
as §1, with “Specifically,” for “Specifically, the”, “out from” for “out”, “calculated.” for “calculated. • The remaining cells were seeded in a 24 well plate, and the state after 3 days was confirmed by microscopic observation.”

[5] = system: Common marmoset (CM) ES cells; assay: Cytotoxicity and influence on differentiation with common marmoset ES cells; format: cell-based; details: 2% in culture medium for CMES; for nature of the colony morphology: after 3 days
Protocol: Specifically, the experiment was conducted as follow • CMES cells were cultured with reference to “Establishment of novel embryonic stem cell lines derived from the common marmoset” ([…], Izawa […], Asano 5, Nakatsuji N, Okano H, Tani K. Stem Cells. 2005 October; 23(9):1304-13). • CMES cells were seeded in a φ35 mm dish to which feeder cells had preliminarily been adhered, and the cell membrane permeable substance was added in an amount corresponding to 2% of the amount of the culture medium. • After 3 days, microscopic observation was conducted, and the presence of the growth suppression and differentiation promotion on CMES cells was examined.

[6] = system: Common marmoset ES cell line strain CMES40; assay: Preservation effect on common marmoset ES cells (take rate, ALP-positive colonies); format: cell-based; details: cell membrane permeable substance used alone, with trehalose, 60 seconds
Excerpt: According to the present invention, it is possible to provide a vitrification medium which is excellent in operability and safety and can efficiently preserve cells, particularly primate ES/iPS cells. Specifically, the take rate of ca. 60% could be obtained even if simian ES cells were suspended in the vitrification medium of the present invention and after 60 seconds the suspension was poured into liquid nitrogen (as described hereinafter, the “take rate” in place of the “survival rate” is used with respect to the preservation efficiency of simian ES cells. In this place, the take rate is calculated on the basis of the number of undifferentiated colonies having taken after three or four days from the seeding of the cells without vitrification as 100). Hitherto, when DAP213, which has been most commonly used, was used, it was important to pour the cell suspension into liquid nitrogen within 15 seconds after suspending the cells in DAP213 for avoiding the lowering of the survival rate. Due to this fact, skillfulness was required for operations and wide dispersion in results was apprehended to occur depending on the technical skills of operators, so that a stable result was not always obtained. […]

[7] = Solubility at low temperature; format: physicochemical

With `OC[C@H]1O[C@@](CO)(O[C@H]2O[C@H](CO)[C@@H](O)[C@H](O)[C@H]2O)[C@@H](O)[C@@H]1O` [sucrose, Sucrose, reference compound] the “time required for the once vitrificated storage solution to be melted completely” value (from here on “time required”) [1] was “no reduction of melting time”.
With “Bovine serum albumin [reference compound]” the “time required” value [1] was “an effect similar to that of sericin, its activity remained unsatisfactory”.
With `OC[C@H]1O[C@H](O[C@H]2O[C@H](CO)[C@@H](O)[C@H](O)[C@H]2O)[C@H](O)[C@@H](O)[C@@H]1O` [trehalose, D-(+)-Trehalose-dihydrate] the “time required” value [1] was “no reduction of melting time” and the “vitrification by rapid cooling in liquid nitrogen” value [2] was “vitrified”.
With `OCCCCO` [BG, Butylene glycol] the “vitrification by rapid cooling with liquid nitrogen” value [3] was “vitrified”.
For sericin, the “time required” value [1] was “shortened” and the “growth of ice crystals” value ([1]; concluded from melting time) was “suppresses the growth of ice crystals”.
With `CC(N)=O` [acetamide, Acetamide] the “survival rate, effect of acetamide” value ([4]; DAP213 versus DP23, vitrification after 60 seconds) was “reduced” and the “improvement of the survival rate due to acetamide” value ([4]; DAP213 versus DP23, vitrification within 15 seconds) was “not recognized”.
For `OCCO` [EG, Ethylene glycol], the “survival rate after melting” value ([4]; 40% solution in PBS, left standing for 60 seconds before vitrification) was “substantially lowered as compared with DMSO+PG; also recorded: second highest”, the “colonies after vitrification, melting and culture” value (“colonies after vitrification” below) [4] was “biggest colony” and the “differentiation promoting effect on the CMES cells” value (from here on “differentiation promoting effect”) [5] was “no differentiation promoting effect”. For the same molecule, the “nature of the colony morphology” value [5] was “good” and the preservation efficiency [6] was “high preservation efficiency”.
With `OC[C@H]1O[C@H](OC[C@H]2O[C@H](O[C@]3(CO)O[C@H](CO)[C@@H](O)[C@@H]3O)[C@H](O)[C@@H](O)[C@@H]2O)[C@H](O)[C@@H](O)[C@H]1O` [raffinose, D-(+)-Raffinose-pentahydrate] the “vitrification by rapid cooling in liquid nitrogen” value [2] was “vitrified” and the solubility [7] was “low solubility”.
With `CC(C)(O)CCO` [IPG, Isoprene glycol] the “vitrification by rapid cooling with liquid nitrogen” value [3] was “vitrified”.
With `CC(O)CO` (centres unmarked) [PG, Propylene glycol] the “colonies after vitrification” value [4] was “secondly”, the “differentiation promoting effect” value [5] was “no differentiation promoting effect” and the “nature of the colony morphology” value [5] was “good”. The “vitrification by rapid cooling with liquid nitrogen” value [3] was “vitrified”.
In the case of `C[S+](C)[O-]` [DMSO, Dimethyl sulfoxide], the “colonies after vitrification” value [4] is reported as “least number of colonies”, the “differentiation promoting effect” value [5] is reported as “no differentiation promoting effect” and the “nature of the colony morphology” value [5] is reported as “good”. For the same molecule, the “vitrification by rapid cooling with liquid nitrogen” value [3] was “no vitrification occurs”.
In the case of `CC(O)COC(C)CO` (centres unmarked) [DPG, Diprepylene glycol], the “vitrification by rapid cooling with liquid nitrogen” value [3] is reported as “vitrified”.
